In series [1] the test system is Homo sapiens. In words: Tmax in 1 to <3 months old infant assessed as penciclovir at 6.6 +/- 1.4 mg/kg, po single dose. The class given is ADME, organism-based. More on the design: route oral. As to conditions: in vivo.
In series [2] the test system is Homo sapiens. Description: Cmax in 1 to <3 months old infant assessed as penciclovir at 6.6 +/- 1.4 mg/kg, po single dose. More on the design: route oral. The note with it: in vivo. The class given is ADME, organism-based.
Series [3] deals with Homo sapiens. In words: AUC (0 to 6 hrs) in 1 to <3 months old infant assessed as penciclovir at 6.6 +/- 1.4 mg/kg, po single dose. Format: ADME, organism-based, Plasma. Also noted: time < 6 hr, route oral. As to conditions: in vivo.
Series [4] concerns Homo sapiens. Description: Tmax in 2 to <6 months old infant assessed as penciclovir at 6.6 +/- 1.4 mg/kg, po single dose. Also noted: route oral. The note with it: in vivo. Format: ADME, organism-based.
For series [5], the system named is Homo sapiens. Description: Cmax in 2 to <6 months old infant assessed as penciclovir at 6.6 +/- 1.4 mg/kg, po single dose. Format: ADME, organism-based. More on the design: route oral. The note with it: in vivo.
Series [6] relates to Homo sapiens. Description: AUC (0 to 6 hrs) in 2 to <6 months old infant assessed as penciclovir at 6.6 +/- 1.4 mg/kg, po single dose. Format: ADME, organism-based, Plasma. More on the design: time < 6 hr, route oral. The note with it: in vivo.
In series [7] the test system is Homo sapiens. Description: Tmax in 6 to 12 months old infant assessed as penciclovir at 6.6 +/- 1.4 mg/kg, po single dose. Format: ADME, organism-based. More on the design: route oral. As to conditions: in vivo.
The test system of series [8] is Homo sapiens. Description: Cmax in 6 to 12 months old infant assessed as penciclovir at 6.6 +/- 1.4 mg/kg, po single dose. The class given is ADME, organism-based. More on the design: route oral. As to conditions: in vivo.
The subject of series [9] is Homo sapiens. In words: AUC (0 to 6 hrs) in 6 to 12 months old infant assessed as penciclovir at 6.6 +/- 1.4 mg/kg, po single dose. Format: ADME, organism-based, Plasma. More on the design: time < 6 hr, route oral. The note with it: in vivo.
The test system of series [10] is Homo sapiens. In words: Toxicity in 1 to 12 months old infant assessed as adverse events at 13.5 mg/kg, po single dose within 8 days. The class given is organism-based. More on the design: dose 13.5 mg/kg, route oral. As to conditions: in vivo, 192 h.
Series [11] deals with Homo sapiens. Description: Toxicity in 1 to 12 months old infant assessed as mild adverse events at 13.5 mg/kg, po single dose within 8 days. The class given is organism-based. Also noted: dose 13.5 mg/kg, route oral. The note with it: in vivo, 192 h.
Series [12] deals with Homo sapiens. In words: Toxicity in 1 to 12 months old infant assessed as moderate adverse events at 13.5 mg/kg, po single dose within 8 days. Also noted: dose 13.5 mg/kg, route oral. As to conditions: in vivo, 192 h. The class given is organism-based.
In series [13] the test system is Homo sapiens. In words: Toxicity in 1 to 12 months old infant assessed as severe adverse events at 13.5 mg/kg, po single dose within 8 days. Format: organism-based. More on the design: dose 13.5 mg/kg, route oral. The note with it: in vivo, 192 h.

The structures appear in SMILES notation.

As for `CC(=O)OCC(CCn1cnc2cnc(N)nc21)COC(C)=O` [FAMCICLOVIR], the values for the Tmax with Homo sapiens [1], with Homo sapiens [4] and in the series with Homo sapiens [7] were 1 h, 4 h and 1.02 h, respectively. The Cmax with Homo sapiens [2] stood at 690 ng/mL; in the series on Homo sapiens [5], 740 ng/mL; in the series with Homo sapiens [8] it was 3240 ng/mL. Also, the AUC in the series with Homo sapiens [3] came to 2110 ng·h/mL; in the series on Homo sapiens [6] it was 3160 ng·h/mL; in the series with Homo sapiens [9] it was 8770 ng·h/mL. For the same molecule, the Activity came to 44.4% in the series on Homo sapiens [10], 16.7% in the series with Homo sapiens [11], 22.2% with Homo sapiens [12] and 5.6% in the series with Homo sapiens [13].

What is called Tmax is the time at which the peak concentration occurs. By Cmax is commonly meant the highest concentration seen after dosing. The term AUC denotes concentration integrated over time.
